Experimental findings from PubChem BioAssay (NCI) are described below.

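Where inhibition never reached the appropriate level, the endpoint shown equals the highest concentration tested. Otherwise, values were interpolated linearly from a five-concentration, 48-hour dose response in 96-well plates. Abbreviation: GI50, concentration required for 50% inhibition of growth. TGI marks complete inhibition of growth.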

Test systems include SK-MEL-28 melanoma; HCT-116 colon; NCI-H460 lung; MALME-3M melanoma; RXF 393 renal; SNB-75 CNS; M14 melanoma; HCT-15 colon; UACC-62 melanoma; CCRF-CEM leukemia.
What all share (experiment): growth of human tumour cells (NCI), 48 h

Take `N=C(c1ccccc1)N(c1ccccc1)c1ccccc1`: the TGI was > 100 µM with SK-MEL-28 melanoma; > 100 µM with HCT-116 colon; > 100 µM in the assay on NCI-H460 lung; 94.6 µM in the assay with MALME-3M melanoma; > 100 µM in the assay on RXF 393 renal; > 100 µM with SNB-75 CNS. In addition, the TGI in the assay with M14 melanoma was > 100 µM.

Take `COC(=O)[C@@H](NC(=O)NC(=O)NC(=O)CI)C(C)C`: the GI50 is 1.88 µM in the assay on SK-MEL-28 melanoma; 12.2 µM with HCT-116 colon; 1.66 µM in the assay with HCT-15 colon; 14.4 µM with UACC-62 melanoma; 18.9 µM in the assay on NCI-H460 lung; 1.63 µM in the assay with MALME-3M melanoma. Further, the GI50 in the assay with RXF 393 renal is 6.35 µM; in the assay on SNB-75 CNS it was 13.2 µM; with M14 melanoma it was 3.34 µM. In addition, the TGI is 3.85 µM with SK-MEL-28 melanoma; 24.6 µM in the assay with HCT-116 colon; 3.16 µM in the assay on HCT-15 colon; 29.9 µM in the assay on UACC-62 melanoma; 38.2 µM in the assay on NCI-H460 lung; 3.64 µM in the assay with MALME-3M melanoma. Moreover, the figures for the TGI in the assay with RXF 393 renal, with SNB-75 CNS and in the assay with M14 melanoma were 18.8 µM, 26.8 µM and 13.1 µM, respectively.

For the compound `COc1cc(-c2nn3c(/C=C4/C(=O)Nc5ccccc54)c(-c4ccc(C)cc4)nc3s2)cc(OC)c1OC`, the GI50 in the assay on HCT-116 colon is 2.59 µM; with HCT-15 colon it was 2.68 µM; with UACC-62 melanoma it was 5.47 µM; in the assay with NCI-H460 lung it was 1.98 µM; with MALME-3M melanoma, 0.765 µM; in the assay with RXF 393 renal it was 2.24 µM. Besides, the GI50 in the assay with SNB-75 CNS is 0.552 µM. The TGI is 13.8 µM with HCT-116 colon; > 100 µM in the assay on HCT-15 colon; > 100 µM with UACC-62 melanoma; > 100 µM in the assay on NCI-H460 lung; 4.78 µM with MALME-3M melanoma; 14.7 µM in the assay on RXF 393 renal. The same compound had a TGI in the assay with SNB-75 CNS of 10.7 µM.

With `NS(=O)(=O)c1ccc(NC(=O)c2ccc(NC3=C(Cl)C(=O)N(Cc4ccccc4)C3=O)cc2)cc1`, the GI50 in the assay with SK-MEL-28 melanoma is 4.16 µM; in the assay on HCT-116 colon, 2.68 µM; with HCT-15 colon, 13.7 µM; in the assay with NCI-H460 lung, 5.07 µM; in the assay on MALME-3M melanoma, 49.4 µM; in the assay on M14 melanoma it was 12 µM. Also, the TGI in the assay on SK-MEL-28 melanoma was > 100 µM; in the assay with HCT-116 colon, 10.3 µM; in the assay with HCT-15 colon, 69.4 µM; in the assay on NCI-H460 lung, > 100 µM; in the assay on MALME-3M melanoma, > 100 µM; in the assay with M14 melanoma, 34.6 µM.

With `COc1ccc(/C(=N/NC(N)=O)C2(O)C(=O)Nc3ccc([N+](=O)[O-])cc32)cc1` (stereo not given), the TGI in the assay on SK-MEL-28 melanoma is 36.9 µM; with HCT-116 colon, 36.1 µM; in the assay on CCRF-CEM leukemia, 32.3 µM; in the assay on HCT-15 colon, 46.1 µM; in the assay with UACC-62 melanoma, 43.6 µM; with NCI-H460 lung it was 39.4 µM. Also, the TGI in the assay with MALME-3M melanoma is > 10 µM; in the assay with SNB-75 CNS, 69.8 µM; with M14 melanoma, 31.1 µM.

For `COc1cc2c(/C=N\N=C(N)N)c(Cl)[nH]c2cc1C`, the GI50 was 10.2 µM in the assay on HCT-116 colon; 3.89 µM with CCRF-CEM leukemia; 18 µM in the assay with HCT-15 colon; 12 µM in the assay with UACC-62 melanoma; 15 µM in the assay with NCI-H460 lung; 14.8 µM in the assay on RXF 393 renal. The GI50 in the assay on M14 melanoma was 12.5 µM. In addition, the TGI was 21.9 µM in the assay with HCT-116 colon; 17.5 µM in the assay with CCRF-CEM leukemia; 34.1 µM in the assay with HCT-15 colon; 24.6 µM with UACC-62 melanoma; > 100 µM in the assay on NCI-H460 lung; 30.1 µM in the assay with RXF 393 renal. Also, the TGI in the assay on M14 melanoma was 25.2 µM.

In the case of `CCSc1nnc2c(-c3ccccc3)n[nH]c2n1`, the TGI with SK-MEL-28 melanoma, in the assay on HCT-116 colon, with CCRF-CEM leukemia, with HCT-15 colon, in the assay on UACC-62 melanoma and in the assay on NCI-H460 lung was > 100 µM throughout. For the same compound, the TGI in the assay with RXF 393 renal, with SNB-75 CNS and with M14 melanoma was > 100 µM throughout.

As to `O=C1OC(=O)c2c1c(-c1ccccc1)cn2-c1ccc(Cl)cc1`, the TGI in the assay with SK-MEL-28 melanoma, with HCT-116 colon, in the assay on CCRF-CEM leukemia, with HCT-15 colon, with NCI-H460 lung and in the assay with MALME-3M melanoma was > 100 µM throughout. Moreover, the TGI with SNB-75 CNS and in the assay on M14 melanoma was > 100 µM throughout.

For `O=C(O)c1ccccc1Cc1ccco1`, the TGI with HCT-116 colon, with HCT-15 colon, with UACC-62 melanoma, with NCI-H460 lung, with MALME-3M melanoma and in the assay on RXF 393 renal was > 100 µM each time. Besides, the TGI with SNB-75 CNS and in the assay with M14 melanoma was > 100 µM each time.

As for `COc1cc2c(cc1O)C=NCC2`, the TGI with SK-MEL-28 melanoma, with HCT-116 colon, in the assay with CCRF-CEM leukemia, with HCT-15 colon, in the assay with UACC-62 melanoma and with NCI-H460 lung was > 100 µM throughout. Moreover, the TGI with MALME-3M melanoma, with SNB-75 CNS and with M14 melanoma was > 100 µM each time.

As for `NNC(=S)N/N=C(\CCCC(=O)NCCc1ccccc1)CC(=O)c1ccccc1`, the TGI in the assay with SK-MEL-28 melanoma, in the assay on HCT-116 colon, in the assay on HCT-15 colon, in the assay with UACC-62 melanoma, in the assay on NCI-H460 lung and in the assay on MALME-3M melanoma was > 100 µM each time. Besides, the TGI in the assay with RXF 393 renal and with M14 melanoma was > 100 µM in each case.

For `COc1cc(C(=O)OCCCCCCCCCCC[P+](c2ccccc2)(c2ccccc2)c2ccccc2)ccc1O`, the GI50 was 0.273 µM in the assay on HCT-116 colon; 0.434 µM in the assay on CCRF-CEM leukemia; 1.38 µM in the assay with HCT-15 colon; 0.768 µM in the assay on UACC-62 melanoma; 0.349 µM in the assay with M14 melanoma. In addition, the TGI was determined as 1.09 µM in the assay on HCT-116 colon; 2.52 µM in the assay with CCRF-CEM leukemia; 2.97 µM in the assay with HCT-15 colon; 2.44 µM in the assay with UACC-62 melanoma; 1.45 µM in the assay on M14 melanoma.

Consider `C=CCC1OC(C)(C)Oc2ccc(OCOCCOC)cc21` (stereo not given), for which the TGI with SK-MEL-28 melanoma, with HCT-116 colon, with HCT-15 colon, in the assay on UACC-62 melanoma, in the assay on NCI-H460 lung and in the assay on MALME-3M melanoma was > 100 µM in each case. The TGI in the assay with RXF 393 renal, with SNB-75 CNS and with M14 melanoma was > 100 µM throughout.
